The text below walks through data of patent publication US12605461B2, “Hydrogel compositions and uses thereof” (priority 2019, dated 2026).

As usually defined, the IC50 is the midpoint of a concentration-inhibition curve. High values mean weaker potency, low ones greater potency.

The test system of experiment [1] is BT474 cells. Put plainly: Drug screening, BT474 (RealTime-Glo MT). The class given is cell-based, human. As to the method:
(§1) The following example describes experiments conducted to calculate IC50 values using a non-linear fit in Graphpad Prism by GraphPad Software Inc.
(§2) Cells grown in 2D were dosed starting after 24 h with either EHT-1864, AZD6482, Maritoclax, ZSTK474, Afatinib, TW-37, ABT-199, ABT-263 and Temsirolimus between 50 nM and up to 20 μM using an Hewlett-Packard (HP) D300 digital dispenser containing up to 0.2% DMSO then treated again 48 h following the first dose and ended after 72 h of treatment. Cells grown in 3D were dosed after 14 days with up to 0.2% DMSO every 48 h for 7 days. Cell viability was assessed by removing media and replacing it with 100 μL of sterile RealTime-Glo MT (Promega) which was diluted 1000× in media warmed to 37° C. After 1 h luminescence was detected using a Tecan microplate reader (Life Sciences) with 1 second integration time. Cell viability was calculated by subtracting background luminescence from all groups; treatment was compared to control wells, which received up to 0.2% DMSO. Data represents 3 independent replicates consisting of different cell passages for each condition to calculate the mean and standard deviation of cell viability.

The test system of experiment [2] is MDA-MB-468 cells. Put plainly: Drug screening, MDA-MB-468 (PrestoBlue). The class given is cell-based. The conditions noted are these: Homo sapiens, treated 7 days. On the procedure:
as §1
Cells were dosed with 0.1, 1, 5, 20 and 50 μM Erlotinib-HCl containing 0.27% DMSO every 48 h for 7 days. Cell viability was assessed by removing media and replacing it with 150 μL of sterile, PrestoBlue which was diluted 10× in media warmed to 37° C. After 2.5 hours fluorescence was detected using a Tecan microplate reader (Life Sciences) by exciting at 570 nm and detected at 590 nm. Cell viability was calculated by subtracting background fluorescence from all groups; treatment was compared to control wells, which received 0.27% DMSO. Data represents 3 independent replicates consisting of different cell passages for each condition to calculate the mean and standard deviation of cell viability.

Experiment [3] deals with tumor derived mammary luminal epithelial cells. Put plainly: Drug screening with primary cells. The class given is cell-based. The conditions noted are these: human patient tumour luminal B breast cancer cells. On the procedure: as §2, with “dosed” for “dosed starting”, “Maritoclax” for “either EHT-1864, AZD6482, Maritoclax, ZSTK474, Afatinib, TW-37, ABT-199, ABT-263 and Temsirolimus”, “10” for “50”, “DMSO. IC50 values were calculated using a non-linear fit in Graphpad Prism by GraphPad Software Inc.” for “DMSO.”

The subject of experiment [4] is MDA-MB-468 cells. Put plainly: RGDOA cell adhesion assay. Format: cell-based, human. The note with it: RGDOA 250-1000 μM conjugated to HA-oxime hydrogels for 1 hour. On the procedure:
RGDOA Cell Adhesion assay: […] After gelling for 2 h at 37° C., 25 μL of 125, 250, 500, and 1000 μM RGDOA solutions in media described above were added to hydrogels. After treatment with RGDOA solutions for 1 h at 37° C., the media was removed and gels were washed three times with media at 25 μL per well. MDA-MB-468 cells were seeded on the surface of the hydrogels at a density of 3000 cells well^−1 in 25 μL of media and incubated for 30 min. Media was gently removed by pipette and replaced with PBS cooled to 4° C. […] Cells nuclei were stained with Hoechst 33342, 1/250 in PBS, 25 μL well^−1 for 4 h. Images were obtained using an Olympus confocal microscope at 10× magnification with z-stacks of 12 μm step size. Cell number was quantified using spot identification in Imaris 8 software by Bitplane. The fold change in cell number was calculated from control hydrogels containing no RGDOA peptide. A minimum of 3 independent replicates consisting of different cell passages were performed for each condition.

Take `Cc1cc([C@@H](C)Nc2ccccc2C(=O)O)c2nc(N3CCOCC3)cc(=O)n2c1` [AZD6482]: the “responsiveness in HA-oxime versus Matrigel or 2D TCPS” value in experiment [1] (BT474 cells) is “more responsive”.

For `O=c1cc(CN2CCOCC2)occ1OCCCCCSc1ccnc2cc(C(F)(F)F)ccc12` [EHT-1864], the “responsiveness in HA-oxime versus Matrigel” value in experiment [1] (BT474 cells) was “more responsive”.

With `FC(F)c1nc2ccccc2n1-c1nc(N2CCOCC2)nc(N2CCOCC2)n1` [ZSTK474], the “cell response between HA-oxime, Matrigel and 2D TCPS” value in experiment [1] (BT474 cells) was “cell response did not always differ between the 3 culture conditions”.

Regarding `C#Cc1cccc(Nc2ncnc3cc(OCCOC)c(OCCOC)cc23)c1` [erlotinib], the IC50 was roughly 4.5 µM in experiment [2] (MDA-MB-468, MDA-MB-468 cultured in 3D (Matrigel, HA-oxime+/−Ln) 21 days) and 37.6 µM in experiment [2] (MDA-MB-468, MDA-MB-468 grown on 2D TCPS 21 days).

For the molecule `O=C(c1ccccc1O)c1[nH]c(Cl)c(Cl)c1-n1c(C(=O)c2ccccc2O)cc(Cl)c1Cl` [maritoclax], the “sensitivity in HA-oxime versus 2D TCPS” value in experiment [1] (BT474 cells) is listed as “over tenfold more sensitive”. Besides, the figures for the IC50 in experiment [1] (BT474 cells cultured in 2D TCPS) and in experiment [1] (BT474 cells cultured in HA-oxime) were 5.5 µM and 0.59 µM, respectively. Moreover, the “sensitivity in 3D HA-oxime versus 2D TCPS” value in experiment [3] is recorded as “significantly more sensitive”.

Acetyl-GRGDSPASSKK(OA)G [RGDOA]: in experiment [4], the “number of adherent MDA-MB-468 cells” value is recorded as “increase in the number of adherent cells”.
